One data set can be described thus: LLNA sensitization test. It is filed as in vivo. Particulars: cytotoxicity can also be detected. The protocol:
(§1) The tests carried out to measure the toxicity of the initiators are the Ames test and the LLNA sensitization test. The Ames test makes it possible to measure the mutagenic power of the initiator and the LLNA sensitization test makes it possible to detect the sensitizing power of the initiator. The cytotoxicity of the initiators can also be detected in this latter test (see examples).
The following toxicology tests were carried out:
LLNA sensitization test: this test makes it possible to detect the sensitizing power of the product. The cytotoxicity of the products can also be detected in the course of the test.
Table I below indicates the results obtained for the various photoinitiators prepared above.

A short description of data set [1]: Ames test (mutagenic power). The class given is cell-based. The protocol: as §1, with “examples). The following toxicology tests were carried out: Ames test: this Ames test makes it possible to measure the mutagenic power of the product Table I below indicates the results obtained for the various photoinitiators prepared above.” for “examples).”
(The Ames test detects mutagens through reverse mutation in bacteria.)

Data set [2] is described as follows: Reactivity under UV irradiation of the photoinitiator. To be noted: compared with the other toxic photo-initiators. The text has this:
The crosslinkable compositions comprise the non-toxic initiator prepared in Example 4.

Results on eight molecules are retold here after patent US6291540A, “Non-toxic initiators and their use for preparing stable and non-toxic polymers” (Rhodia Chimie, priority 1997, dated 2001).

`Cc1ccc([I+]c2ccc(C(C)C)cc2)cc1` [Example 3, cumyltolyliodonium chloride]: the LLNA sensit. entry in “LLNA sensitization test” is given as “negative”. The Ames result in data set [1] was “negative”.

In the case of `Cc1ccc([I+]c2ccc(C(C)C)cc2)cc1` [Example 4], the “reactivity under UV irradiation” value in data set [2] is reported as “comparable”.

For the molecule `Cc1ccc([I+]c2ccc(Oc3ccccc3)cc2)cc1` [Example 9], the LLNA sensit. entry in the data set “LLNA sensitization test” was “negative”. The Ames result in data set [1] is listed as “cytotoxic”.

In the case of `Cc1ccc([I+]c2ccc(C)cc2)cc1` [Example 2], the LLNA sensit. result in the data set “LLNA sensitization test” is recorded as “positive”. Moreover, the Ames result in data set [1] is reported as “positive”.

For the molecule `CC(C)c1ccc([I+]c2ccc(C(C)C)cc2)cc1` [Example 10], the LLNA sensit. result in “LLNA sensitization test” was “positive”. The Ames result in data set [1] is “negative”.

Turning to `COc1ccc([I+]c2ccc(OC)cc2)cc1` [Example 11], the LLNA sensit. result in “LLNA sensitization test” is listed as “cytotoxic”. Moreover, the Ames entry in data set [1] is listed as “cytotoxic”.

Regarding `CCOc1ccc([I+]c2ccc(C)cc2)cc1` [Example 8], in the data set “LLNA sensitization test”, the LLNA sensit. entry was “positive”. Further, the Ames entry in data set [1] was “positive and cytotoxic”.

As to `Cc1ccc([I+]c2ccc(C)cc2)cc1` [Example 1, ditolyliodonium chloride], in “LLNA sensitization test”, the LLNA sensit. result is “cytotoxic”. In data set [1], the Ames entry is “cytotoxic”.
